Data set [1] deals with C[C@H]1c2cccc(O)c2C(=O)C2=C(O)[C@]3(O)C(=O)C(C(N)=O)=C(O)[C@@H](N(C)C)[C@@H]3[C@@H](O)[C@@H]21. Description: purified protein. The conditions noted are these: pH 8.5.
Another data set deals with T1, Tet(56-3) (Legionella massiliensis, UniProt A0A078L5T0).
T1 construct: gene BN59_03621
Kind of data set: biochemical.

The target in a further data set is T2, Tet(56-2) (Legionella clemsonensis, UniProt A0A222NYA8).
T2 construct: gene clem_00015
Kind of data set: biochemical.

For another data set, the system named is Tet(X7). It counts as biochemical, uncultured bacterium. As to conditions: […] NADPH, […] MgCl2, 100 mM TAPS pH 8.5, 0.4 µM enzyme; read-out: KM (apparent).
In a further data set the test system is E. coli + pZE24 TetX7_WT. Description: microbe, parasite or virus in culture. As to conditions: Escherichia coli, 20 h. The method, then: (§1) For high expression from the Plac/ara-1 promoter, 1 mM IPTG fully relieves repression by LacI[93]. Inoculated panels were incubated at 37 °C for 20 h with shaking, then scored by eye and using a plate reader.
In another data set the test system is E. coli + pZE24 Tet50_WT. Description: microbe, parasite or virus in culture. The conditions noted are these: Escherichia coli, 20 h. The protocol: as §1
The test system of the next data set is Tet(56-7). As to conditions: read-out: KM (apparent).
For a further data set, the system named is Tet(56-6). The conditions noted are these: read-out: KM (apparent); […] NADPH, […] MgCl2, 100 mM TAPS pH 8.5, 0.4 µM enzyme.
The subject of a further data set is Tet(56-5). The conditions noted are these: read-out: KM (apparent).
The next data set deals with Tet(X13.2). The conditions noted are these: read-out: KM (apparent); […] NADPH, […] MgCl2, 100 mM TAPS pH 8.5, 0.4 µM enzyme.
The next data set deals with Tet(58). The conditions noted are these: read-out: KM (apparent); […] NADPH, […] MgCl2, 100 mM TAPS pH 8.5, 0.4 µM enzyme.
The next data set concerns Tet(56-4). As to conditions: read-out: KM (apparent); […] NADPH, […] MgCl2, 100 mM TAPS pH 8.5, 0.4 µM enzyme.

This passage reports Km, IC50 and MIC results from article PMC10944477 (Communications Biology, 2024).

≈ marks a conversion by molar mass, not a printed value.

T2 sequence (A0A222NYA8 1-387 limits assumed): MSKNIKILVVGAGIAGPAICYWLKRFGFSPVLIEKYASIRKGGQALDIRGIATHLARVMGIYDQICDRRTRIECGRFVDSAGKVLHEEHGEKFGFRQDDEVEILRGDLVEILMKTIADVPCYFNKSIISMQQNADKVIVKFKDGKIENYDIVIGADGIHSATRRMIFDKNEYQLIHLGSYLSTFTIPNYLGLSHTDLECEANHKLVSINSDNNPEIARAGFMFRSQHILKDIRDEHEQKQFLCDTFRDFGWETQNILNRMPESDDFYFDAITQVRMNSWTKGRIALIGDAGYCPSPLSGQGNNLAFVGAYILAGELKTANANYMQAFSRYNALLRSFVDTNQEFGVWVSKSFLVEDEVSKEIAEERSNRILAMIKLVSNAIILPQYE
T1 sequence (A0A078L5T0 1-387 limits assumed): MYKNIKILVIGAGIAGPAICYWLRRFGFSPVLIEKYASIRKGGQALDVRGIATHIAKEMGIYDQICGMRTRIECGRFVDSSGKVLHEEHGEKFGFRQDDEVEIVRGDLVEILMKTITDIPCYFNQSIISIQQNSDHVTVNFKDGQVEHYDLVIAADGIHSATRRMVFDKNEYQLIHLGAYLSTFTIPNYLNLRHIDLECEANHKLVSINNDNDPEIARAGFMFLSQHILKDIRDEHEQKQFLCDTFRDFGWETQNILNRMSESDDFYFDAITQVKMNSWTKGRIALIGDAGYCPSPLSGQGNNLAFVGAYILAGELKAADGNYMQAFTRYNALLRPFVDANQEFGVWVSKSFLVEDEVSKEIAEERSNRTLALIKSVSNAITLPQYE

Take Tet(56-2) (Legionella clemsonensis): the Km (as a rule, the concentration of substrate that gives half-maximal velocity) in data set [1] is reported as 150 ± 42 µM.

With `Cc1c2c(c(O)c3c(O)cccc13)C(=O)[C@]1(O)C(=O)C(C(N)=O)=C(O)[C@@H](N(C)C)[C@@H]1C2` [ATC, anhydrotetracycline], the IC50 (commonly the midpoint of a concentration-inhibition curve) against Tet(56-3) stood at 30 ± 6 µM; against Tet(56-2), 6.4 ± 0.9 µM.

In the case of `C[C@H]1c2cccc(O)c2C(=O)C2=C(O)[C@]3(O)C(=O)C(C(N)=O)=C(O)[C@@H](N(C)C)[C@@H]3[C@@H](O)[C@@H]21` [DOX, doxycycline], in the data set with Tet(X7), the Km was 5.62 ± 0.629 µM. Also, the MIC with E. coli + pZE24 TetX7_WT came to 16 µg/mL (≈ 36 µM); in the data set with E. coli + pZE24 Tet50_WT, 2 µg/mL (≈ 4.5 µM).

Tet(56-3) (Legionella massiliensis): the Michaelis-Menten constant (Km) in data set [1] came to 14.9 ± 1.4 µM.

As for `CN(C)c1cc(NC(=O)CNC(C)(C)C)c(O)c2c1C[C@H]1C[C@H]3[C@H](N(C)C)C(O)=C(C(N)=O)C(=O)[C@@]3(O)C(O)=C1C2=O` [tigecycline], the MIC in the data set on E. coli + pZE24 TetX7_WT amounted to 2 µg/mL (≈ 3.41 µM); in the data set with E. coli + pZE24 Tet50_WT it was 0.5 µg/mL (≈ 0.854 µM).

Regarding `CN(C)[C@@H]1C(=O)C(C(N)=O)=C(O)[C@@]2(O)C(=O)C3=C(O)c4c(O)cccc4[C@@](C)(O)[C@H]3C[C@@H]12` [TET, tetracycline], the Km in the data set with Tet(X7) was 2.97 ± 0.68 µM; in the data set on Tet(56-7), 2.6 ± 0.301 µM; in the data set on Tet(56-6), 0.441 ± 0.218 µM; in the data set with Tet(56-5), 0.508 ± 0.181 µM; in the data set with Tet(X13.2) it was 23.4 ± 9.62 µM; with Tet(58), 0.123 ± 0.067 µM. In the data set on Tet(56-4), the Km was determined as 1.18 ± 0.562 µM. For the same molecule, the MIC in the data set with E. coli + pZE24 TetX7_WT and with E. coli + pZE24 Tet50_WT was 32 µg/mL (≈ 72 µM) in each case.
